In experiment [1] the target is T1, Type-2 angiotensin II receptor (Rattus norvegicus, UniProt P35351).
T1 sequence (P35351 whole entry): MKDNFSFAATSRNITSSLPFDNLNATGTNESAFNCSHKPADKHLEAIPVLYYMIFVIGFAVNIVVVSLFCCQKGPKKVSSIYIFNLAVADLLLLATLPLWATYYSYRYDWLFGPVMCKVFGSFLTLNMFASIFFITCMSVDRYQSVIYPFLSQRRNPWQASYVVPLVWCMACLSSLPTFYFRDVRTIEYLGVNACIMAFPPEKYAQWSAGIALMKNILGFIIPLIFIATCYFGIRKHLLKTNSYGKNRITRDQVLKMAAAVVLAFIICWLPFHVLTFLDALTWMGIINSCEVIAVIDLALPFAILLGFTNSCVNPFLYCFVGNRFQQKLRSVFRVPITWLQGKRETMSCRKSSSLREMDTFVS
Description: Inhibition of rat AT2 receptor.

The target in experiment [2] is T2, Type-1 angiotensin II receptor A (Rattus norvegicus, UniProt P25095).
T2 sequence (P25095 whole entry): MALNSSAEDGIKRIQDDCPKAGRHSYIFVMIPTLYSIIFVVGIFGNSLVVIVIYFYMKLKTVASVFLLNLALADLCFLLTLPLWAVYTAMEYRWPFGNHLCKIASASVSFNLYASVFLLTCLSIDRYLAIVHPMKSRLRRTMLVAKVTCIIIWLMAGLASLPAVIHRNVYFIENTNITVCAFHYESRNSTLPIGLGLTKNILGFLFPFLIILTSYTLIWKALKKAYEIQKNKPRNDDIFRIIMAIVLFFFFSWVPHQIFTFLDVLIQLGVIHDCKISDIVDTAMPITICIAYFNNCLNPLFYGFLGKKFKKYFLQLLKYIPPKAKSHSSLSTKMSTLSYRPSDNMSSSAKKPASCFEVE
Description: Inhibition of rat AT1 receptor.

In experiment [3] the target is T2, Type-1 angiotensin II receptor A. Description: Displacement of [125I]Ang II from AT1 receptor in rat liver membranes. The class given is cell membranes. On the technique in general: Displacement assays read how much labelled ligand stays bound in the presence of the test substance.
A short description of experiment [4]: Displacement of [125I]Ang II from AT2 receptor in pig uterus membranes. Format: cell membranes, Sus scrofa.
Experiment [5] addresses T3, Type-1 angiotensin II receptor (Homo sapiens, UniProt P30556).
T3 sequence (P30556 whole entry): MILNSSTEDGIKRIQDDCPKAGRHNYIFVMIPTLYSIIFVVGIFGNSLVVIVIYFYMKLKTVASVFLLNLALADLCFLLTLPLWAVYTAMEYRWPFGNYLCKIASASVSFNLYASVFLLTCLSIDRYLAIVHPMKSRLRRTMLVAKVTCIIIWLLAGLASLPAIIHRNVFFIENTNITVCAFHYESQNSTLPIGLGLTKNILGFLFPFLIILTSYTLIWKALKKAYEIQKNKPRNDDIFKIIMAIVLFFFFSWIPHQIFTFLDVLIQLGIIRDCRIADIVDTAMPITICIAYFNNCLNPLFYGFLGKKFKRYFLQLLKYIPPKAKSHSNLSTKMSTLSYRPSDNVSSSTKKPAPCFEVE
Description: Inhibition of human AT1 receptor.

Experiment [6] has as its target T4, Proto-oncogene Mas (Homo sapiens, UniProt P04201).
T4 sequence (P04201 whole entry): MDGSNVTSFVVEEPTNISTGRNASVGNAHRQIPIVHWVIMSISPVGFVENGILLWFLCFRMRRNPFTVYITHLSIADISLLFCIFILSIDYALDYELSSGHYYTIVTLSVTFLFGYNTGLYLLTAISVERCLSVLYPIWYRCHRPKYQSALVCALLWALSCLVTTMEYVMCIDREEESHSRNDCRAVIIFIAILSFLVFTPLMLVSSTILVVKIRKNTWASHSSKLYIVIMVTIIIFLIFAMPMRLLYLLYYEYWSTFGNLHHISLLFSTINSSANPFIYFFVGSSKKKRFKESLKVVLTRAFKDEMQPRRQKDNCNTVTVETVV
Description: Agonist activity at N-terminal c-Myc tagged human MasR expressed in HEK293T cells assessed as reduction in forskolin-induced cAMP accumulation. The class given is functional, cell-based. (Changes in cAMP serve as a functional read-out for many G protein-coupled receptors.)

Experiment [7] has as its target T4, Proto-oncogene Mas. Nature of the experiment: Antagonist activity at N-terminal c-Myc tagged human MasR expressed in HEK293T cells by cAMP accumulation based assay. The class given is functional, cell-based.
The target in experiment [8] is T2, Type-1 angiotensin II receptor A. Nature of the experiment: Displacement of [125I]Ang II from AT1 receptor in rat SMC membranes incubated for 60 mins by gamma counting method. The class given is cell membranes.

Where a SMILES comes first, the peptide text is derived from it.

The term IC50 denotes the concentration that gives 50% inhibition. Take `COc1ccc2c(c1OCc1ccccc1)CC(C(=O)O)N(C(=O)C(c1ccccc1)c1ccccc1)C2` (stereo not drawn): the IC50 in experiment [1] was determined as 0.0752 µM; in experiment [2] it was 2900 µM.
For orientation: Ki means the equilibrium dissociation constant of an inhibitor or competing ligand from its target. A higher Ki goes with weaker binding. For `CCCCOC(=O)NS(=O)(=O)c1sc(CC(C)C)cc1-c1ccc(Cn2c(CC)nc3c(C)cc(C)nc32)cc1`, the inhibition constant (Ki) amounted to 0.0039 µM in experiment [3] and 0.0028 µM in experiment [4].
In the case of `CCCCOC(=O)NS(=O)(=O)c1ccc(Cc2cccc(OC)c2)cc1-c1ccc(Cn2c(CC)nc3c(C)cc(C)nc32)cc1`, the IC50 amounted to 0.0014 µM in experiment [3] and 0.101 µM in experiment [4].
`Cc1cc(Cn2cnc3c2C[C@@H](C(=O)O)N(C(=O)C(c2ccccc2)c2ccccc2)C3)ccc1N(C)C` yielded a Ki in experiment [5] of 0.012 µM.
Take `CCNC(=O)NS(=O)(=O)c1sc(CC(C)C)cc1-c1ccc(Cn2c(-c3ccccc3)nc(OC)c2C=O)cc1`: the IC50 at Proto-oncogene Mas [6] was 0.021 µM.
The molecule `COc1ccc2c(c1OCc1ccccc1)C[C@H](C(=O)O)N(C(=O)C(c1ccccc1)c1ccccc1)C2` returned an IC50 in experiment [5] of 1.1 µM.
The molecule `CC[C@H](C)[C@H](NC(=O)[C@H](Cc1ccc(O)cc1)NC(=O)[C@@H](NC(=O)[C@H](CCCNC(=N)N)NC(=O)[C@@H](N)CC(=O)O)C(C)C)C(=O)N[C@@H](Cc1cnc[nH]1)C(=O)N[C@H](C)C(=O)O` (HELM PEPTIDE1{D.R.V.Y.I.H.[dA]}$$$$V2.0) showed an IC50 on Proto-oncogene Mas [7] of 0.0003 µM.
`CC[C@H](C)[C@H](NC(=O)[C@@H]1CCCN1C(=O)[C@H](Cc1c[nH]cn1)NC(=O)[C@H](CCCCNC(=O)[C@H](CCCN=C(N)N)NC(=O)OCc1ccccc1)NC(=O)[C@H](Cc1ccc(O)cc1)NC(=O)c1cccnc1)C(=O)O` (HELM PEPTIDE1{[O=C(c1cccnc1)[*:2]].Y.K.H.P.I}|PEPTIDE2{[O=C(OCc1ccccc1)[*:2]].R}$PEPTIDE1,PEPTIDE2,3:R3-2:R2$$$V2.0) registered a Ki in experiment [8] of 1.7 µM. This lies in the single-digit micromolar range.
Take `CCCCOC(=O)NS(=O)(=O)c1sc(CC(C)C)cc1-c1ccc(Cn2ccnc2)cc1` [BULOXIBUTID]: the Ki in experiment [3] was over 10 µM.
In experiment [5], `COc1ccc2c(c1OCc1ccccc1)C[C@@H](C(=O)O)N(C(=O)C(c1ccccc1)c1ccccc1)C2` [OLODANRIGAN] returned a concentration for half-maximal inhibition (IC50) of 0.039 µM.
